One test concerns T78-1/T79-A3. The test is described as follows: TE50 is termed as Bystander effect evaluated in T78-1 and T79-A3 cell lines. It counts as functional, Cricetulus griseus. More on the design: unit not given beside the values.
For a further test, the system named is T78-1. The test is described as follows: Cytotoxicity in T78-1 (NR-negative) cell lines. The class given is functional, cell-based. The following applies: Cricetulus griseus.
Test [1] addresses T1, Modulator of drug activity A (Escherichia coli O157:H7) (UniProt Q8X6S1).
T1 sequence (whole entry): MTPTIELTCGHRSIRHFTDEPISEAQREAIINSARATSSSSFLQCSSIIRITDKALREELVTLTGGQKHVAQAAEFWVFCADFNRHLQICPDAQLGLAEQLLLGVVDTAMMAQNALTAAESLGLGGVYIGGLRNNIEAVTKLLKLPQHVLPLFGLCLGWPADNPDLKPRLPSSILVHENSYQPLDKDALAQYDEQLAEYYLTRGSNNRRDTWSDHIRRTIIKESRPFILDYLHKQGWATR
The test is described as follows: IC50 ratio for NR-positive and NR-negative cell lines. It counts as functional.

Each structure is given as a SMILES string. Bounds are passed on as bounds.

Turning to `NC(=O)c1cc(N2CC2)c([N+](=O)[O-])cc1[N+](=O)[O-]` [TRETAZICAR], the TE50 in the test on T78-1/T79-A3 is 1. For the same compound, in the test with T78-1, half-maximal inhibition (IC50) required 158 µM.
In the case of `NC(=O)c1cc(N(CCBr)CCBr)c([N+](=O)[O-])cc1[N+](=O)[O-]`, the TE50 in the test with T78-1/T79-A3 amounted to 0.1. The compound further displayed an IC50 with T78-1 of 633 µM. In addition, the Ratio in test [1] was 2530.
The compound `NC(=O)c1cc(N(CCI)CCI)c([N+](=O)[O-])cc1[N+](=O)[O-]` showed a TE50 in the test on T78-1/T79-A3 of 0.3. The same compound gave an IC50 with T78-1 of 71 µM. Also, the Ratio in test [1] amounted to 494.
The matching figures for `NC(=O)c1cc(N(CCCl)CCCl)c([N+](=O)[O-])cc1[N+](=O)[O-]`: 3.7, 895 µM and 63.
For `CS(=O)(=O)c1cc([N+](=O)[O-])c(C(N)=O)cc1N(CCCl)CCCl`, the IC50 with T78-1 is > 1000 µM. Moreover, the Ratio in test [1] was > 17.
Turning to `NC(=O)c1c([N+](=O)[O-])ccc(N(CCCl)CCCl)c1[N+](=O)[O-]`, the IC50 in the test with T78-1 was > 1000 µM.
On to `NC(=O)c1cc([N+](=O)[O-])cc([N+](=O)[O-])c1N(CCI)CCI`, for which the TE50 in the test on T78-1/T79-A3 was 0.4. For the same compound, the midpoint of inhibition in the test with T78-1, the IC50, lay at 58 µM.
The matching figures for `O=C(NCC(O)CO)c1cc([N+](=O)[O-])cc([N+](=O)[O-])c1N(CCCl)CCCl` (stereo not drawn): 12 and 919 µM.
For `O=C(NCC(O)CO)c1cc([N+](=O)[O-])cc([N+](=O)[O-])c1N(CCI)CCI` (stereo not drawn), the TE50 in the test on T78-1/T79-A3 was found to be 7. The same compound gave an IC50 in the test with T78-1 of 86 µM. Moreover, the Ratio in test [1] was determined as 21.5.
In turn, `O=C(NCC(O)CO)c1cc(N(CCI)CCI)c([N+](=O)[O-])cc1[N+](=O)[O-]` (stereo not drawn) displayed a TE50 in the test on T78-1/T79-A3 of 0.45. Also, in the test with T78-1, the concentration for half-maximal inhibition (IC50) was 793 µM.
With `CN(C)CCNC(=O)c1c([N+](=O)[O-])ccc(N(CCCl)CCCl)c1[N+](=O)[O-]`, the half-maximal inhibitory concentration (IC50) in the test with T78-1 turned out to be 722 µM. For the same compound, the Ratio in test [1] came to 0.8.
The matching figures for `O=C(NCC(O)CO)c1cc(N(CCCl)CCCl)c([N+](=O)[O-])cc1[N+](=O)[O-]` (stereo not drawn): > 5000 µM and > 55.
Consider `CS(=O)(=O)CCN(CCS(C)(=O)=O)c1cc(C(N)=O)c([N+](=O)[O-])cc1[N+](=O)[O-]`, for which the IC50 in the test with T78-1 is > 1000 µM.
On the same count and under the same terms, under `CS(=O)(=O)CCN(CCCl)c1cc(C(N)=O)c([N+](=O)[O-])cc1[N+](=O)[O-]` stands > 1000 µM.
With `NC(=O)c1cc([N+](=O)[O-])cc([N+](=O)[O-])c1N(CCBr)CCBr`, the TE50 with T78-1/T79-A3 turned out to be 0.22. In the test on T78-1, this compound displayed an IC50 of 17.5 µM.
As to `NC(=O)c1cc([N+](=O)[O-])cc([N+](=O)[O-])c1N(CCCl)CCCl`, the IC50 in the test on T78-1 is > 1000 µM. The Ratio in test [1] is > 133.

In general, IC50 refers to the concentration at which inhibition is half-maximal.

The values are drawn from ChEMBL document CHEMBL1129997 (J Med Chem, 1997).
